Source: patent US20130123323A1, “FUNGICIDAL PYRAZOLES” (E I DU PONT DE NEMOURS AND COMPANY, priority 2010, published 2013)

What was measured:
Assay type in all cases: in vivo
[1] = tested on: Blumeria graminis f. sp. tritici; assay: Test F: wheat powdery mildew, test suspension sprayed on wheat seedlings the day before inoculation; conditions: sprayed to run-off, inoculated with spore dust following day, visual rating after 8 days at 20° C., 100 = 100% disease control, triplicate averaged
Procedure: General protocol for preparing test suspensions for Tests A-F: the test compounds were first dissolved in acetone in an amount equal to 3% of the final volume and then suspended at the desired concentration (in ppm) in acetone and purified water (50/50 mix) containing 250 ppm of the surfactant Trem® 014 (polyhydric alcohol esters). The resulting test suspensions were then used in Tests A-F. Each test was conducted in triplicate, and the results were averaged. Spraying a 200 ppm test suspension to the point of run-off on the test plants was the equivalent of a rate of 800 g/ha. The test suspension was sprayed to the point of run-off on wheat seedlings. The following day the seedlings were inoculated with a spore dust of Blumeria graminis f. sp. tritici (also known as Erysiphe graminis f. sp. tritici, the causal agent of wheat powdery mildew) and incubated in a growth chamber at 20° C. for 8 days, after which time visual disease ratings were made. Results for Tests A-F are given in Table A. In the Table, a rating of 100 indicates 100% disease control and a rating of 0 indicates no disease control (relative to the controls). A dash (-) indicates no test results.

[2] = tested on: Septoria nodorum; assay: Test C: wheat glume blotch, test suspension sprayed on wheat seedlings the day before inoculation; conditions: sprayed to run-off, inoculated following day, visual rating after 48 h at 24° C. + 9 days at 20° C., 100 = 100% disease control, triplicate averaged
Procedure: (§1) General protocol for preparing test suspensions for Tests A-F: the test compounds were first dissolved in acetone in an amount equal to 3% of the final volume and then suspended at the desired concentration (in ppm) in acetone and purified water (50/50 mix) containing 250 ppm of the surfactant Trem® 014 (polyhydric alcohol esters). The resulting test suspensions were then used in Tests A-F. Each test was conducted in triplicate, and the results were averaged. Spraying a 200 ppm test suspension to the point of run-off on the test plants was the equivalent of a rate of 800 g/ha. The test suspension was sprayed to the point of run-off on wheat seedlings. The following day the seedlings were inoculated with a spore suspension of Septoria nodorum (the causal agent of wheat glume blotch) and incubated in a saturated atmosphere at 24° C. for 48 h, and then moved to a growth chamber at 20° C. for 9 days, after which time visual disease ratings were made. Results for Tests A-F are given in Table A. In the Table, a rating of 100 indicates 100% disease control and a rating of 0 indicates no disease control (relative to the controls). A dash (-) indicates no test results.

[3] = tested on: Alternaria solani; assay: Test B: tomato early blight, test suspension sprayed on tomato seedlings the day before inoculation; conditions: sprayed to run-off, inoculated following day, visual rating after 48 h at 27° C. + 5 days at 20° C., 100 = 100% disease control, triplicate averaged
Procedure: as §1, with “tomato” for “wheat”, “Alternaria solani” for “Septoria nodorum”, “tomato early blight)” for “wheat glume blotch)”, “27°” for “24°”, “5” for “9”

[4] = tested on: Septoria tritici; assay: Test D: wheat leaf blotch, test suspension sprayed on wheat seedlings the day before inoculation; conditions: sprayed to run-off, inoculated following day, visual rating after 48 h at 24° C. + 19 days at 20° C., 100 = 100% disease control, triplicate averaged
Procedure: as §1, with “of Septoria tritici (the causal” for “of Septoria nodorum (the causal”, “of wheat leaf blotch) and” for “of wheat glume blotch) and”, “incubated in saturated atmosphere” for “incubated in a saturated atmosphere”, “and then the seedlings were moved to” for “and then moved to”, “C. for 19 additional days, after” for “C. for 9 days, after”

[5] = tested on: Puccinia recondita f. sp. tritici; assay: Test E1: wheat leaf rust, wheat seedlings sprayed after inoculation; conditions: wheat seedlings inoculated, 24 h + 2 days at 20° C., then sprayed to run-off; visual rating 4 days later; 100 = 100% disease control; triplicate averaged
Procedure: as §1, with “Wheat” for “The test suspension was sprayed to the point of run-off on wheat seedlings. The following day the”, “Puccinia recondita f. sp. tritici” for “Septoria nodorum”, “leaf rust)” for “glume blotch)”, “20°” for “24°”, “24” for “48”, “2 days. At the end of this time the test suspension was sprayed to the point of run-off on the wheat seedlings, and then the seedlings were moved to a growth chamber at 20° C. for 4” for “9”

[6] = tested on: Puccinia recondita f. sp. tritici; assay: Test E2: wheat leaf rust, test suspension sprayed on wheat seedlings the day before inoculation; conditions: sprayed to run-off, inoculated following day, visual rating after 24 h + 6 days at 20° C., 100 = 100% disease control, triplicate averaged
Procedure: as §1, with “Puccinia recondita f. sp. tritici” for “Septoria nodorum”, “leaf rust)” for “glume blotch)”, “20°” for “24°”, “24” for “48”, “6” for “9”

[7] = tested on: Botrytis cinerea; assay: Test A: tomato botrytis, test suspension sprayed on tomato seedlings the day before inoculation; conditions: sprayed to run-off, inoculated following day, visual rating after 48 h at 20° C. + 3 days at 24° C., 100 = 100% disease control, 0 = no control, triplicate averaged
Procedure: General protocol for preparing test suspensions for Tests A-F: the test compounds were first dissolved in acetone in an amount equal to 3% of the final volume and then suspended at the desired concentration (in ppm) in acetone and purified water (50/50 mix) containing 250 ppm of the surfactant Trem® 014 (polyhydric alcohol esters). The resulting test suspensions were then used in Tests A-F. Each test was conducted in triplicate, and the results were averaged. Spraying a 200 ppm test suspension to the point of run-off on the test plants was the equivalent of a rate of 800 g/ha. The test suspension was sprayed to the point of run-off on tomato seedlings. The following day the seedlings were inoculated with a spore suspension of Botrytis cinerea (the causal agent of tomato botrytis) and incubated in saturated atmosphere at 20° C. for 48 h, and then moved to a growth chamber at 24° C. for 3 days, after which time visual disease ratings were made. Results for Tests A-F are given in Table A. In the Table, a rating of 100 indicates 100% disease control and a rating of 0 indicates no disease control (relative to the controls). A dash (-) indicates no test results.

| Compound | Test F disease control rating [1] [%] | Test C disease control rating [2] [%] | Test B disease control rating [3] [%] | Test D disease control rating [4] [%] | Test E1 disease control rating [5] [%] | Test E2 disease control rating [6] [%] | Test A disease control rating [7] [%] |
| --- | --- | --- | --- | --- | --- | --- | --- |
| Cc1nn(C)c(C(F)c2ccc(F)cc2F)c1-c1ccc(F)cc1Cl (centres unmarked) [Compound 1, 4-(2-Chloro-4-fluorophenyl)-5-[(2,4-difluorophenyl)fluoromethyl]-1,3-dimethyl-1H-pyrazole] | 69 | 0 | 83 | 98 | 40 | 99 | 100 |
| Cc1nn(C)c(C(Cl)c2ccc(F)cc2F)c1-c1ccc(F)cc1Cl (centres unmarked) [Compound 2, 5-[Chloro(2,4-difluorophenyl)methyl]-4-(2-chloro-4-fluorophenyl)-1,3-dimethyl-1H-pyrazole] | 0 | 0 | 0 | 100 | 0 | 94 | 99 |
| COc1cc(F)c(C(F)c2c(-c3c(F)cccc3F)c(C)nn2C)c(F)c1 (centres unmarked) [Compound 3] | 99 | 0 | 46 | 100 | 98 | 100 | 100 |
| Cc1nn(C)c(C(F)c2ccc(F)cc2F)c1-c1c(F)cccc1F (centres unmarked) [Compound 4] | 0 | 0 | 98 | 52 | 66 | 18 | 99 |
| Cc1nn(C)c(C(Cl)c2ccc(F)cc2F)c1-c1c(F)cccc1F (centres unmarked) [Compound 5] | 100 | 89 | 100 | 100 | 9 | 100 | 100 |
| Cc1nn(C)c(C(F)c2ccc(F)cc2Cl)c1-c1c(F)cccc1Cl (centres unmarked) [Compound 6] | 87 |  |  | 96 |  | 98 |  |
| Cc1nn(C)c(C(Cl)c2ccc(F)cc2Cl)c1-c1c(F)cccc1Cl (centres unmarked) [Compound 7] | 100 |  |  | 100 |  | 100 |  |
